Assay [1] deals with HEK293 cells. Kind of assay: HEK293 Alamar Blue viability estimation assay. Conditions: pentamidine 1 µM, diminazene 40 µM. The assay is classed as cell-based, human. Here is the method:
(§1) T.b. brucei lister 427 cells were maintained in log phase growth in 25 cm^2 tissue culture flasks (Corning, NY, USA) by sub-culturing at either 24 or 48 hour intervals. Cells were grown in HMI-9 medium, supplemented with 10% fetal calf serum (FCS) and 100 IU/ml penicillin/streptomycin (Invitrogen, Carlsbad, California, USA) with incubation at 5% CO2 at 37°C in humidified conditions. HEK293 cells were maintained in high glucose DMEM with L-glutamine, supplemented with 1× non-essential amino acids (NEAA; Invitrogen, USA) and 1 mM sodium pyruvate. Growth conditions were in 5% CO2 at 37°C, under humidified conditions.
Cells at 80% confluence were harvested and diluted in growth medium (high glucose DMEM supplemented with 10% FCS) to 7.27×10^4 cells/ml. Under sterile conditions, 55 µl of diluted cells per well were added to a black, clear bottomed 384-well lidded plate (BD Biosciences, Bedford, MA, USA) with a Multidrop liquid handler (Thermo Scientific, Barrington, IL, USA). Incubation times, compound additions and plate read were as per the trypanosome viability assay, with the exception that Alamar Blue was diluted in HEK293 growth media before addition, and incubation of Alamar Blue at 37°C, in 5% CO2, was for 4 hours, followed by incubation at room temperature for 20 hours. The activity of compounds against HEK293 cells was used to calculate the SI of mammalian to T.b. brucei cells. The control compound for HEK293 cells was puromycin (Calbiochem, USA).
Compounds identified from primary screening were retested against both T.b. brucei and HEK293 cells in duplicate and at varying concentrations to obtain a dose-response curve. Thus, a 5 µl sample of fresh compound stock solution (5 mM in DMSO) was cherry picked into 384-well plates and diluted 1∶10 in dilution medium (high glucose DMEM without FCS). Serial dilutions of these samples were then prepared in the same media by a Minitrak robotic liquid handler (Perkin Elmer, USA). […] A screening dose of 10.4 µM was included in the dilution series to enable reconfirmation of primary screening T.b. brucei activity.
The DMSO working concentration in the serial dilutions was maintained at 5%, giving a final assay concentration of 0.42% DMSO, except for the 41.7 µM test compound solution, where as previously stated the corresponding DMSO concentration was 0.83% v/v. […] Therefore the 41.7 µM test compound sample with 0.83% v/v DMSO was not used in the T.b. brucei assay and thus the top test compound concentration in this assay was 20.8 µM.
Compound activity in the retest campaign was calculated as percentage inhibition in relation to positive and negative controls, in the same manner as the primary screening campaign. The positive controls, pentamidine (2 µM final concentration) for T.b. brucei and puromycin (8 µM final concentration) for HEK293, were both screened in whole 384-well control plates. Whole 384-well plate controls were included after every batch of 20 compound plates, and were comprised of half a plate of negative control and half a plate of positive control. The negative control was the vehicle, […]. The negative control was also included in column 24 of each compound assay plate to determine signal variation from plate to plate and to calculate compound activity. The exception was the 41.7 µM compound dose used in the HEK293 assay. In these plates column 24 contained 0.83% DMSO as a negative control. A separate 384-well plate containing a 13 point dose-response of the reference compounds puromycin, pentamidine and diminazene, in triplicate, was also included per 20 compound test plate batch to estimate assay sensitivity.
These compounds were retested as in dose for N of three replicates, as described above for both T.b. brucei and HEK293.

For assay [2], the system named is T.b. brucei bloodstream form lister 427. In words: T.b. brucei Alamar Blue viability estimation assay (384-well HTS, retest and rescreen). The assay is classed as cell-based, Trypanosoma brucei brucei. The following applies: for IC50: Trypanosoma brucei. Here is the method:
as §1
All reagent and cell additions were made with a Multidrop liquid handler (Thermo Scientific, Newington, NH, USA) under sterile conditions. Fifty-five microliters of 2000 cells/mL of T.b. brucei in HMI-9 medium were added to a black, clear-bottomed 384-well lidded plate (BD Biosciences, Franklin Lanes, NJ, USA). Cells were incubated for 24 hours at 37°C in an atmosphere of 5% CO2 before addition of 5 µl of compounds/DMSO for control wells. Compounds suspended in 100% DMSO or 100% DMSO as controls were pre-diluted 1∶21 in high glucose DMEM without FCS by using a Minitrack robotic liquid handler (PerkinElmer, Waltham, MA, USA). Five microliters of diluted sample was added to the plate to give a final DMSO concentration of 0.417% in the assay. Cells were incubated for an additional 48 hours at 37°C. Ten microliters of 70% Alamar Blue (Biosource, Bethesda, MD, USA) was added to each well (diluted in HMI-9 medium supplemented with 10% FCS) to a final concentration of 10% in the assay. The plate was incubated for two hours under the same conditions, then incubated for 22 hours in the dark at room temperature. Wells were read at 535 nm (excitation) and 590 nm (emission) wavelengths on a Victor II Wallac plate reader (PerkinElmer, USA). Specific dilutions are explained further in the primary and retest assay methodology. Reference drugs used in the assay were pentamidine (Sigma-Aldrich, St Louis, MO, USA), diminazene aceturate (Sigma-Aldrich, USA) and puromycin (Calbiochem, San Deigo, CA, USA). Pentamidine is used to treat patients with HAT and diminazene is a veterinary drug used against T.b. brucei to combat infections in cattle.
Primary screening of the library, consisting of 87,296 compounds in two hundred and forty eight 384-well plates, was undertaken in single point against T.b. brucei. Stock solutions consisted of test compound at a concentration of 5 mM in 100% DMSO. One µl of each compound stock solution was diluted by the addition of 40 µl of dilution medium (high glucose DMEM without FCS) by a multidrop liquid handler (Thermo Scientific, USA). A 5 µl sample of this diluted solution was then added to the trypanosome assay plate. The final concentration of test compound in the assay was […] and that of DMSO was 0.42% v/v. Compounds were screened over a total of 11 days, at an average of 80 plates per day, taking into consideration that the assay incubation was 3 days total. Test compounds were added to plates in batches of 20 at two hour intervals, to maintain the timing of additions and reads.
Compound activity was calculated as the percentage inhibition in relation to positive and negative controls. […] These in-plate negative controls were used in an effort to normalise compound activity in relation to any plate to plate variation in the assay signal. A whole 384-well control plate was included in each day's screening, one per 20 compound plates containing half a plate of 2 µM pentamidine for the positive assay control, and half a plate of 0.42% v/v DMSO as a negative control. The positive assay control was used to calculate compound activity for batches of 20 compound plates. As well providing the positive control data, these whole plate controls were used for the calculation of the Z' to measure the reproducibility of the assay.

The test system of assay [3] is mammalian cell lines. The following applies: cited from earlier work.

Read-outs that look alike come from different tables or passages of the source.

As a reminder, the IC50 is the concentration at which inhibition is half-maximal. Take `N=C(N)c1ccc(/N=N/Nc2ccc(C(=N)N)cc2)cc1` [Diminazene, diminazene aceturate, reference compound]: the “activity in the HEK293 assay at the doses screened, rescreening” value in assay [1] is “neither pentamidine nor diminazene displayed activity”. For the same compound, the “activity in the HEK293 assay at the doses screened, retest campaign” value in assay [1] is reported as “Neither pentamidine nor diminazene displayed activity”. Further, the “Selectivity Index T.B” value in assay [2] (HEK293 IC50 / T.b. brucei IC50, > if less than 50% activity at 75.8 µM in HEK293) is listed as more than 330. Further, the half-maximal inhibitory concentration (IC50) in assay [2] (13 control plates, triplicate dose-response, read-out: IC50 of reference compounds, primary screening campaign) is 65.4 nM; in assay [2] (during rescreening of resynthesized compounds, read-out: Reference Compound Activity T.B (IC50)), 121 ± 9.04 nM; in assay [2] (reference compounds, read-out: IC50 against T.b. brucei, retest screening campaign), 29.5 ± 5.8 nM. Moreover, the “reported SI” value in assay [3] is recorded as 692.

Values taken from PMC3510080, “Identification of Compounds with Anti-Proliferative Activity against Trypanosoma brucei brucei Strain 427 by a Whole Cell Viability Based HTS Campaign” (PLoS Neglected Tropical Diseases, 2012).
